Values joined by “and” are separate entries in the source; they are usually repeats but may differ in a detail not shown here. Equal entries are not always repeated. Structures can show the parent of a compound that is named as a salt. Where two headings read alike, the source gives them in different places.
Key:
human GSK-3β = human GSK-3β (Homo sapiens (Human), UniProt P49841); test: Activity on human GSK-3β, substrate phosphorylation measured by LANCE technology; format: biochemical
Description: Activity on human GSK-3β was assessed using the following methods (according to Meijer et al., Chem. Biol., 2003-10:1255-1266).
In a first screening assay, compounds were tested in duplicate at a concentration of 10 μM.
Human recombinant enzyme GSK-3β was incubated for 90 minutes at 22° C. in the presence of compounds or vehicle in a reaction buffer containing ATP plus 100 nM unphosphorylated specific substrate peptide (Ulight-[…]-amide). Substrate phosphorylation was measured by LANCE technology (PerkinElmer, Conn., USA).
The results, reported in the following Table 4, are expressed as a percent of inhibition of control specific activity obtained in the presence of the test compounds (as % inhibition at 10 μm).
In a second assay, the same compounds were assayed at five concentrations ranging from 100 μM to 10 nM with ten-fold dilutions in duplicate. Compounds 1 to 7, 9, 11 and 13 to 26 were tested using the same first assay, compounds 8, 10, 12, and 27 to 31 were tested in another assay based on the binding and displacement of AlexaFluor® 647 labeled, ATP-competitive Kinase inhibitor scaffold using LanthaScreen™ TR-FRET technology Eu Kinase assay packet according to manufacturer's instruction (Life Technologies, Italy).
The IC50 values (concentration causing a half maximal inhibition of control specific activity), reported in table 4, were determined by non-linear regression analysis of the inhibition curves generated with mean replicate values using Hill equation curve fitting.

MNK2 (h) = MNK2 (h) (Homo sapiens (Human), UniProt Q9HBH9); test: Kinase selectivity panel; format: biochemical; settings: duplicate, read-out: % inhibition of control values, MNK2 (h)
Chain of MNK2 (h) (Q9HBH9 whole entry): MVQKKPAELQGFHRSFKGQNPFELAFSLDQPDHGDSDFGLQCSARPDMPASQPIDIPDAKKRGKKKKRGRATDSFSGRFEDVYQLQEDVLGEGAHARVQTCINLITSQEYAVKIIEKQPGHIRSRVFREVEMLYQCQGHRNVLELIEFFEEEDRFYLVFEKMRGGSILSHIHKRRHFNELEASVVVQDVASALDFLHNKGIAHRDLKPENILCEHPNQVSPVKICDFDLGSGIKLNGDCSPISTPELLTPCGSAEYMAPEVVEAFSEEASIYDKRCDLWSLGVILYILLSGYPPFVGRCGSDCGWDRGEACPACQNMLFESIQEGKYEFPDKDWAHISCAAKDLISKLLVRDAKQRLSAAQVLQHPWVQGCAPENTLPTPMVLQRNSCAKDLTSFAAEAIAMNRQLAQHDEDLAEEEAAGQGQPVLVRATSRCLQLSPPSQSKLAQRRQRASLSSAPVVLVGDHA
Description: (§1) (a) Compound 1 was tested against a panel of 60 kinases in order to assess its selectivity. The assays were chosen taking into consideration the diversity of assay families.
(§2) Human recombinant kinases were incubated in the presence of specific peptide substrates plus ATP for different times (10, 15, 30, 60 or 90 minutes) at 22° C. Phosphorylated substrate was detected by LANCE or HTRF technology (CISBIO, MA, USA).
(§3) Compound 1 was tested at 10 μM in duplicate.
(§4) The results are expressed as a percent of inhibition of control specific activity obtained in the presence of the test compound 1 and are reported in the following Table 5.
(§5) (b) Compounds 7, 12, 21 and 24 were tested against the same panel of 60 kinases under the same conditions described above for compound 1.
(§6) The results are expressed as a percent of inhibition of control specific activity obtained in the presence of the test compounds and are reported in the following Table 6.

GSK3beta (h) = GSK3beta (h) (Homo sapiens (Human), UniProt P49841); test: Kinase selectivity panel; format: biochemical; settings: for inhibition at 10 µM: duplicate, read-out: % inhibition of control values, GSK3beta (h); for Selectivity for GSK-3β compared to the other kinases of the panel: panel of 60 kinases, 10 μM
Chain of GSK3beta (h) (P49841 whole entry): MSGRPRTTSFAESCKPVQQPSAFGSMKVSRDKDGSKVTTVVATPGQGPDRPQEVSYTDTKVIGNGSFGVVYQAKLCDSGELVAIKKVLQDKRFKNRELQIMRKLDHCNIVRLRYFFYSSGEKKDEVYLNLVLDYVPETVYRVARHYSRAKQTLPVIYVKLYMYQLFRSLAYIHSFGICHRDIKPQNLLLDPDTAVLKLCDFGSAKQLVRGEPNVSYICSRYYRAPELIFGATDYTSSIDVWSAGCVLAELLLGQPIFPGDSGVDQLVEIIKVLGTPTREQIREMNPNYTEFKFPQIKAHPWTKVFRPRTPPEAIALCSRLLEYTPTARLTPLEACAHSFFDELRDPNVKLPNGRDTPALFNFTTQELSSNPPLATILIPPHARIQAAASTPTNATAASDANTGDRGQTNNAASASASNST
Description: as §1, §2, §3, §4, §5, §6

CDK5/p35 (h) = CDK5/p35 (h) (Homo sapiens (Human), UniProt Q00535); test: Kinase selectivity panel; format: biochemical; settings: duplicate, read-out: % inhibition of control values, CDK5/p35 (h)
Description: as §1, §2, §3, §4, §5, §6

Abl kinase (h) = Abl kinase (h) (Homo sapiens (Human), UniProt P00519); test: Kinase selectivity panel; format: biochemical; settings: duplicate, read-out: % inhibition of control values, Abl kinase (h)
Description: as §1, §2, §3, §4, §5, §6

PhKgamma 2 (h) = PhKgamma 2 (h) (Homo sapiens (Human), UniProt P15735); test: Kinase selectivity panel; format: biochemical; settings: duplicate, read-out: % inhibition of control values, PhKgamma 2 (h)
Description: as §1, §2, §3, §4, §5, §6

JAK1 (h) = JAK1 (h) (Homo sapiens (Human), UniProt P23458); test: Kinase selectivity panel; format: biochemical; settings: duplicate, read-out: % inhibition of control values, JAK1 (h)
Chain of JAK1 (h) (P23458 whole entry): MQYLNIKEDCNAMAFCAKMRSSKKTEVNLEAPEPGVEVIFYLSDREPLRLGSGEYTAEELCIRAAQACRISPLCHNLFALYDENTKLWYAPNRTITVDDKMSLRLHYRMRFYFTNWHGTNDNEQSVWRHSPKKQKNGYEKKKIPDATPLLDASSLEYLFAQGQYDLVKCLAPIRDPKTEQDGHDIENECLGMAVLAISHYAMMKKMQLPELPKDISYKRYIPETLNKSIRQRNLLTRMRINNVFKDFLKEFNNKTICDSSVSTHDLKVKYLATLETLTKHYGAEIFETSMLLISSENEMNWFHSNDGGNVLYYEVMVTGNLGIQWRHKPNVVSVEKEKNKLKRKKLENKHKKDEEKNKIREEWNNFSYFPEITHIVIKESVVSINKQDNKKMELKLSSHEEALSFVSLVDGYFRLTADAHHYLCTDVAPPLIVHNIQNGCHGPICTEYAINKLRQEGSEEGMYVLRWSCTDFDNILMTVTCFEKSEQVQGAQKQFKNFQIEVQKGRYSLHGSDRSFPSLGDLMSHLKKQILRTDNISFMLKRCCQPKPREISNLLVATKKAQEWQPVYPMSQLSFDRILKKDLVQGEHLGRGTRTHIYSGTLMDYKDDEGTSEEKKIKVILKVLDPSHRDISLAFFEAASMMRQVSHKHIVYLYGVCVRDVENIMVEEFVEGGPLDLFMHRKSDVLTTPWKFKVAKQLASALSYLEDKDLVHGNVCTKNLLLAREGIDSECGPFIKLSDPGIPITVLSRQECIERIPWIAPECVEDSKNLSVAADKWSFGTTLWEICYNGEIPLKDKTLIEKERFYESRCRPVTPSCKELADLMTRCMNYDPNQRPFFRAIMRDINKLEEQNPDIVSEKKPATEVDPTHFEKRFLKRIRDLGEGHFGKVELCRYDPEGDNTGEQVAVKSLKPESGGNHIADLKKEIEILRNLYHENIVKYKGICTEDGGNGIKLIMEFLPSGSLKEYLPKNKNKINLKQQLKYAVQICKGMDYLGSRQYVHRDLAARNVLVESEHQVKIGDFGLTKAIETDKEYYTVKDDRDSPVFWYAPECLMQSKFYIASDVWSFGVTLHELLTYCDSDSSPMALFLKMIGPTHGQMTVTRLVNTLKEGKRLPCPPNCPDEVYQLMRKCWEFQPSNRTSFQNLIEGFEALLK
Description: as §1, §2, §3, §4, §5, §6

EphB2 kinase (h) = EphB2 kinase (h) (Homo sapiens (Human), UniProt P29323); test: Kinase selectivity panel; format: biochemical; settings: duplicate, read-out: % inhibition of control values, EphB2 kinase (h)
Description: as §1, §2, §3, §4, §5, §6

Pim1 kinase (h) = Pim1 kinase (h) (Homo sapiens (Human), UniProt P11309); test: Kinase selectivity panel; format: biochemical; settings: duplicate, read-out: % inhibition of control values, Pim1 kinase (h)
Chain of Pim1 kinase (h) (P11309 whole entry): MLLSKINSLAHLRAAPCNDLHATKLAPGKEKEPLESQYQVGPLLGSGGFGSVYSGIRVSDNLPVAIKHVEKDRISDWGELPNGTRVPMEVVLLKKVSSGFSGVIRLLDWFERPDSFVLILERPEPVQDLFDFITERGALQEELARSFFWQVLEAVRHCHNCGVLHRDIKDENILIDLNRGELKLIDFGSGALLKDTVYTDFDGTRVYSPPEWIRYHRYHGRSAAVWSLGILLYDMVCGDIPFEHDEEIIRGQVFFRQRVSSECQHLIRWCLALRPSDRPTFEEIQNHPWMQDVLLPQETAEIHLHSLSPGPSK
Description: as §1, §2, §3, §4, §5, §6

Src kinase (h) = Src kinase (h) (Homo sapiens (Human), UniProt P12931); test: Kinase selectivity panel; format: biochemical; settings: duplicate, read-out: % inhibition of control values, Src kinase (h)
Description: as §1, §2, §3, §4, §5, §6

Akt1/PKBalpha (h) = Akt1/PKBalpha (h) (Homo sapiens (Human), UniProt P31749); test: Kinase selectivity panel; format: biochemical; settings: duplicate, read-out: % inhibition of control values, Akt1/PKBalpha (h)
Chain of Akt1/PKBalpha (h) (P31749 whole entry): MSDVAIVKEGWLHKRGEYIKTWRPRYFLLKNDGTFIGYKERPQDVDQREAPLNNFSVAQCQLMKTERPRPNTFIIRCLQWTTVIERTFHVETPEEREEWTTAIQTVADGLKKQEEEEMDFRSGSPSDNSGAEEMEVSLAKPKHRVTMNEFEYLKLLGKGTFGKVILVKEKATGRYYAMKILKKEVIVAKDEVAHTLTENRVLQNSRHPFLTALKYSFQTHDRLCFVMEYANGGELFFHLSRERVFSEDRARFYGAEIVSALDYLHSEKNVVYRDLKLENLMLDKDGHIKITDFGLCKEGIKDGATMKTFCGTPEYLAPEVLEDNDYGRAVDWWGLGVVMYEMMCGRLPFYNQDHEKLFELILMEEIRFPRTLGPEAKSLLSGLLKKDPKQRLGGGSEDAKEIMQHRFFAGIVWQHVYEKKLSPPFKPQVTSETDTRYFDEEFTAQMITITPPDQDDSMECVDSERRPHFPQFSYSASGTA
Description: as §1, §2, §3, §4, §5, §6

MAPKAPK2 (h) = MAPKAPK2 (h) (Homo sapiens (Human), UniProt P49137); test: Kinase selectivity panel; format: biochemical; settings: duplicate, read-out: % inhibition of control values, MAPKAPK2 (h)
Chain of MAPKAPK2 (h) (P49137 whole entry): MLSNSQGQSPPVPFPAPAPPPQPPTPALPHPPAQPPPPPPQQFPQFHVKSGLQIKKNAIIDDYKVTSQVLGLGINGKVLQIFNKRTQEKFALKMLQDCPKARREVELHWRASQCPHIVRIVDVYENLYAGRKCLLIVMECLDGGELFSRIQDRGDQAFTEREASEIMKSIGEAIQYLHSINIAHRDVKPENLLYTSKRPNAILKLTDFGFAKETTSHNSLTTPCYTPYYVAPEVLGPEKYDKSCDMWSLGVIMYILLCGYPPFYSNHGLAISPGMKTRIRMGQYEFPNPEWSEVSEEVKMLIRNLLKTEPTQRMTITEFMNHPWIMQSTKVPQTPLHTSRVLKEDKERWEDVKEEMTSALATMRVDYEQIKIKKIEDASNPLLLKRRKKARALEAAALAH
Description: as §1, §2, §3, §4, §5, §6

IRAK4 (h) = IRAK4 (h) (Homo sapiens (Human), UniProt Q9NWZ3); test: Kinase selectivity panel; format: biochemical; settings: duplicate, read-out: % inhibition of control values, IRAK4 (h)
Chain of IRAK4 (h) (Q9NWZ3 whole entry): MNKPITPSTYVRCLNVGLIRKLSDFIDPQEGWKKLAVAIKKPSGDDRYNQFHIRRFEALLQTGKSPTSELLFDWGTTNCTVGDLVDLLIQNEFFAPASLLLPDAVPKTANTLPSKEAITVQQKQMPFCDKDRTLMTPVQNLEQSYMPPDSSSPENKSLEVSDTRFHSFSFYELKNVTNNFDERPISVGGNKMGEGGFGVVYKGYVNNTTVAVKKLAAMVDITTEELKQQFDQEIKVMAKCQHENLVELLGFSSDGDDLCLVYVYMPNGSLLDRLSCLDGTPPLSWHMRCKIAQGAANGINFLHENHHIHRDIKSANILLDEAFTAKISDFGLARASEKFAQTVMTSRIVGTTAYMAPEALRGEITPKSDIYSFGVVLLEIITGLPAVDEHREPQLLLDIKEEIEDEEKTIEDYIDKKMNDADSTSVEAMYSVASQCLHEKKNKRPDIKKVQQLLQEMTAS
Description: as §1, §2, §3, §4, §5, §6

AurB/Aur1 kinase (h) = AurB/Aur1 kinase (h) (Homo sapiens (Human), UniProt Q96GD4); test: Kinase selectivity panel; format: biochemical; settings: duplicate, read-out: % inhibition of control values, AurB/Aur1 kinase (h)
Chain of AurB/Aur1 kinase (h) (Q96GD4 whole entry): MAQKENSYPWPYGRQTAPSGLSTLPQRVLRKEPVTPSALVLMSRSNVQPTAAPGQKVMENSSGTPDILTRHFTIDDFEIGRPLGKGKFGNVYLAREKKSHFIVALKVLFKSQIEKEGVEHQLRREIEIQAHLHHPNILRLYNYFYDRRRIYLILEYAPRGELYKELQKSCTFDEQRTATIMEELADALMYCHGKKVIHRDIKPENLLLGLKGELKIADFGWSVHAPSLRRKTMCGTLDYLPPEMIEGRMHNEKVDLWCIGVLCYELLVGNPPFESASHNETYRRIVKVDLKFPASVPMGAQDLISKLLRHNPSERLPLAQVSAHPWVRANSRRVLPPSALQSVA
Description: as §1, §2, §3, §4, §5, §6

Fyn kinase (h) = Fyn kinase (h) (Homo sapiens (Human), UniProt P06241); test: Kinase selectivity panel; format: biochemical; settings: duplicate, read-out: % inhibition of control values, Fyn kinase (h)
Chain of Fyn kinase (h) (P06241 whole entry): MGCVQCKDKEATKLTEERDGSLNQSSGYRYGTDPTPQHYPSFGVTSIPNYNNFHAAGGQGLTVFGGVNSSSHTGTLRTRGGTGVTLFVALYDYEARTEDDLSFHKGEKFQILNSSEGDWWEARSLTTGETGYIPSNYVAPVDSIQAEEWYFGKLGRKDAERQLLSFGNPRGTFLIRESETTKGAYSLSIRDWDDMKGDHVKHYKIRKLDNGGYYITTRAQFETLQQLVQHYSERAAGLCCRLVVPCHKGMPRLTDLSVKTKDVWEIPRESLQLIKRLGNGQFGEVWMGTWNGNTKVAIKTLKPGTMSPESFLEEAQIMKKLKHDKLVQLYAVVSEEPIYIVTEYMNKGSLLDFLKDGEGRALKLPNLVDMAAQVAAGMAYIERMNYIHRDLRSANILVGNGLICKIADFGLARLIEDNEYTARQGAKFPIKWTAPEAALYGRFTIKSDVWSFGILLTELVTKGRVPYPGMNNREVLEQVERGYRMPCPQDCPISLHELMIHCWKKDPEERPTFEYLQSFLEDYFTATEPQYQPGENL
Description: as §1, §2, §3, §4, §5, §6

AMPKalpha = test: Kinase selectivity panel; format: biochemical, human; settings: 10 μM, duplicate
Description: as §1, §2, §3, §4, §5, §6

CDK2 (h) (cycA) = CDK2 (h) (cycA) (Homo sapiens (Human), UniProt P24941); test: Kinase selectivity panel and IC50 determination; format: biochemical; settings: for inhibition at 10 µM: duplicate, read-out: % inhibition of control values, CDK2 (h) (cycA)
Description: as §1, §2, §3, §4
(§7) Compound 1 was also assayed to determine the IC50 values for three different kinases (PCTAIRE1, DYRK1a, and CDK2) in comparison to Gsk3β. The assay was conducted with the same method described above in test I, second assay.
as §5, §6

PCTAIRE1 kinase (h) = PCTAIRE1 kinase (h) (Homo sapiens (Human), UniProt Q00536); test: Kinase selectivity panel and IC50 determination; format: biochemical; settings: for inhibition at 10 µM: duplicate, read-out: % inhibition of control values, PCTAIRE1 kinase (h)
Description: as §1, §2, §3, §4, §7, §5, §6

DYRK1a (h) = DYRK1a (h) (Homo sapiens (Human), UniProt Q13627); test: Kinase selectivity panel and IC50 determination; format: biochemical; settings: for inhibition at 10 µM: duplicate, read-out: % inhibition of control values, DYRK1a (h)
Description: as §1, §2, §3, §4, §7, §5, §6

[1] = 10 μM, duplicate, human recombinant GSK-3β, 90 minutes at 22° C.
[2] = LANCE phosphorylation assay, five concentrations 100 μM to 10 nM, duplicate, read-out: IC50
[3] = Table 5A, method of test I, second assay

Chain of human GSK-3β (P49841 whole entry): as the sequence (P49841 whole entry) above

SMILES	IC50 (human GSK-3β; [2])	inhibition at 10 µM (MNK2 (h)) [%]	inhibition at 10 µM (GSK3beta (h)) [%]	Selectivity for GSK-3β compared to the other kinases of the panel (GSK3beta (h))	inhibition at 10 µM (CDK5/p35 (h)) [%]	inhibition at 10 µM (Abl kinase (h)) [%]	inhibition at 10 µM (PhKgamma 2 (h)) [%]	inhibition at 10 µM (JAK1 (h)) [%]	inhibition at 10 µM (EphB2 kinase (h)) [%]	inhibition at 10 µM (Pim1 kinase (h)) [%]	inhibition at 10 µM (Src kinase (h)) [%]	inhibition at 10 µM (Akt1/PKBalpha (h)) [%]	inhibition at 10 µM (MAPKAPK2 (h)) [%]	inhibition at 10 µM (IRAK4 (h)) [%]	inhibition at 10 µM (AurB/Aur1 kinase (h)) [%]	inhibition at 10 µM (Fyn kinase (h)) [%]	% inhibition of control values, AMPKalpha (AMPKalpha) [%]	inhibition at 10 µM (CDK2 (h) (cycA)) [%]	inhibition at 10 µM (PCTAIRE1 kinase (h)) [%]	inhibition at 10 µM (DYRK1a (h)) [%]	further results
COc1ccc2[nH]nc(C(=O)NCC3CCN(CCc4ccc(O)cc4)CC3)c2c1 [Compound 1, N-({1-[2-(4-hydroxyphenyl)ethyl]-piperidin-4-yl}methyl)-5-methoxy-1H-indazole-3-carboxamide]	< 0.6 µM and 0.35 µM	1	92	good selectivity profile	30	0	6	0	0	2	0	7	0	0	11	13	13	27	87	63	% Inhibition [10 μM] (human GSK-3β; [1]): 94%; inhibition at 10 µM (human GSK-3β; [1]): > 90%; IC50 (human GSK-3β; Table 5A, method of test I, second assay, read-out: IC50 [μM] Gsk3β): 0.35 µM; IC50 (CDK2 (h) (cycA); [3]): 36 µM; IC50 (PCTAIRE1 kinase (h); [3]): 1.5 µM; IC50 (DYRK1a (h); [3]): 2.9 µM
COc1ccc2[nH]nc(C(=O)NCC3CCN(Cc4ccc(C(=O)O)o4)CC3)c2c1 [Compound 24, 5-{[4-({[(5-Methoxy-1H-indazol-3-yl)carbonyl]amino}methyl)piperidin-1-yl]methyl}furan-2-carboxylic acid]	0.4 µM	0	94	good selectivity profile	16	0	0	1	0	2	0	0	0	1	0	3	21	36	1	59	–
COc1ccncc1-c1ccc2[nH]nc(C(=O)NCC3CCN(Cc4ccc(C(=O)O)o4)CC3)c2c1 [Compound 21, 5-({4-[({[5-(4-Methoxypyridin-3-yl)-1H-indazol-3-yl]carbonyl}amino)methyl]piperidin-1-yl}methyl)furan-2-carboxylic acid formate]	0.01 µM	6	96	good affinity to GSK-3β when compared to most of other kinases of the same family	98	0	0	10	2	10	0	0	0	18	10	10	70	100	94	99	–

— patent publication US9163013B2, “Use of 1H-indazole-3-carboxamide compounds as glycogen synthase kinase 3 beta inhibitors” (AZIENDE CHIMICHE RIUNITE ANGELINI FRANCESCO A.C.R.A.F. …, priority 2012, dated 2015)
